Source: paper PMC12858405, “Ideal efficacy photoswitching for chromocontrol of TRPC4/5 channel functions in live tissues” (Nature Chemical Biology, 2026)
pIC50: −log10 of the molar value.

Target: T1, EA-activated TRPC4 (Mus musculus, UniProt Q9QUQ5)
T1 construct: expressed in transfected cells; host or cells: HEK293-mTRPC4β-YFP
T1 sequence (Q9QUQ5 1-890 isoform Q9QUQ5-2): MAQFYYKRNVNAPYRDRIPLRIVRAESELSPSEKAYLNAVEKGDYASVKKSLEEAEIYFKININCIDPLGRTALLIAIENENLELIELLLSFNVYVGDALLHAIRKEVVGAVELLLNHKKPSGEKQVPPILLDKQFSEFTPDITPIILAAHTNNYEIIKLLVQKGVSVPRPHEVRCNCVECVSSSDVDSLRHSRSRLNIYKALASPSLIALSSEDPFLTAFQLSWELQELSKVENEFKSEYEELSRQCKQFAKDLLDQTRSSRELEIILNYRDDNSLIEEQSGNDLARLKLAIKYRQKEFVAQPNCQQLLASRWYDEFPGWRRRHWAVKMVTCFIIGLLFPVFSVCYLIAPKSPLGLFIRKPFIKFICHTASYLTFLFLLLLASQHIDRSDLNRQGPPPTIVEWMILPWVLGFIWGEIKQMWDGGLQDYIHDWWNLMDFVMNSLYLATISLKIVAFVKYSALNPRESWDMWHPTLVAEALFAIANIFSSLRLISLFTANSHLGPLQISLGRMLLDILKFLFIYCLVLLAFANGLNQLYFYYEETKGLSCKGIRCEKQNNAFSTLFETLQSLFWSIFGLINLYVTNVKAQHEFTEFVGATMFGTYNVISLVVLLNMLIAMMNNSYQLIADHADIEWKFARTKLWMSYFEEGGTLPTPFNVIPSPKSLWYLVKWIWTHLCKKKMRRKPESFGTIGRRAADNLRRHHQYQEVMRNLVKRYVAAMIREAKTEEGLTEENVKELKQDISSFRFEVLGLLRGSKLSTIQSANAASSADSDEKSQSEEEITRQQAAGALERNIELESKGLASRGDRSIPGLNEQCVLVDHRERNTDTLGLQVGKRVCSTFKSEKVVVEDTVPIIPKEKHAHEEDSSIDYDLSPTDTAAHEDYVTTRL
Assay: FLIPR Ca2+ assay, E isomers silencing EA-activated TRPC4 (HEK293-mTRPC4β-YFP)
Type: cell-based
From the text: (2) The EC50 values are reported as the midpoints of unconstrained sigmoidal fits to the FLIPR data (Fig 1l and Supplementary Fig. 2): with different levels of channel activation / blocking and very different Hill slopes across different compounds, isomers, and the two channels. This argues that the midpoint values only capture one of the several important factors describing the […]
We believe that it is possible to derive indicative relative values for binding affinity comparing the E and Z isomers of the same compound using only the combination of FLIPR and ephys data as reported in this paper; this analysis is being developed in a separate paper (see also below).
Supplementary Table 1. Potencies on TRPC4/5 depicted as either simple agonistic potency (blue) or else inhibitory […]
. Z*-values refer to mostly-Z-isomer reached at PSS at 365 nm, E*-values refer to experiments that initially applied 100% E-isomer (thermally relaxed), though in both cases the Ca2+ imaging in FLIPR with Fluo4-AM uses 470 nm excitation, which may over time promote photoswitching towards a PSS that is intermediate between those of pure-365 nm and all-E; this is controlled for in the more reliable ephys measurements). (Table indices: a, data from ref7; b, data from ref2; c, data from ref3; d, data from ref8.) EC50 [nM] (for simple agonism or EA-competitive inhibition)
E-AzPico 90 (vs 30 nM EA) 67 (vs 30 nM EA) […]
orange: inhibitory effect ag.: agonistic effect
1.1.1 From always-active antagonists and agonists towards efficacy photoswitches […]
photoisomerising an azobenzene that is merged in at the C’4 position yielding the compounds […]
deliver (Fig. 1-2) is a powerful support for an efficacy switch interpretation. To indirectly support this further, we also measured the effects of E-AzPico and E-AzHC against EA-activated TRPC4/5. […]
to be an EA-competitive binder5,9,10), so their efficacy as single agent photoswitches results from E/Z-competitive binding that is determined by their PSS. […]
Supplementary Table 2. […] (a Inhibitory effect measured against 30 nM EA; b Inhibitory effect measured against 50 nM EA). […]

pIC50 (Inhibitory IC50 (versus 30 nM EA) TRPC4, E isomer, thermally relaxed, 30 nM EA): 7.05 | pIC50 (Inhibitory IC50 (versus 50 nM EA) TRPC4, E isomer, 50 nM EA): 7.07
Structure (SMILES): Cn1c(=O)n(CCCO)c(=O)c2c1nc(Oc1ccc(/N=N/c3ccccc3)c(OC(F)(F)F)c1)n2Cc1ccc(Cl)cc1 [E-AzPico]
